Test results from patent publication US20240101542A1, “ERAP INHIBITORS” (UNIVERSITE DE LILLE, priority 2020, published 2024).

How the values were obtained:
ERAP2 = ERAP2 (Homo sapiens (Human), UniProt Q6P179); experiment: In vitro ERAP activity assay, ERAP2 with R-AMC substrate; type: biochemical; set-up: IC50 on ERAP2 using R-AMC as substrate: scale not given here; settings: for IC50 / IC50 on ERAP2 using R-AMC as substrate: R-AMC as substrate; for IC50: read-out: IC50 on ERAP2 using R-AMC as substrate
Sequence of ERAP2 (Q6P179 whole entry): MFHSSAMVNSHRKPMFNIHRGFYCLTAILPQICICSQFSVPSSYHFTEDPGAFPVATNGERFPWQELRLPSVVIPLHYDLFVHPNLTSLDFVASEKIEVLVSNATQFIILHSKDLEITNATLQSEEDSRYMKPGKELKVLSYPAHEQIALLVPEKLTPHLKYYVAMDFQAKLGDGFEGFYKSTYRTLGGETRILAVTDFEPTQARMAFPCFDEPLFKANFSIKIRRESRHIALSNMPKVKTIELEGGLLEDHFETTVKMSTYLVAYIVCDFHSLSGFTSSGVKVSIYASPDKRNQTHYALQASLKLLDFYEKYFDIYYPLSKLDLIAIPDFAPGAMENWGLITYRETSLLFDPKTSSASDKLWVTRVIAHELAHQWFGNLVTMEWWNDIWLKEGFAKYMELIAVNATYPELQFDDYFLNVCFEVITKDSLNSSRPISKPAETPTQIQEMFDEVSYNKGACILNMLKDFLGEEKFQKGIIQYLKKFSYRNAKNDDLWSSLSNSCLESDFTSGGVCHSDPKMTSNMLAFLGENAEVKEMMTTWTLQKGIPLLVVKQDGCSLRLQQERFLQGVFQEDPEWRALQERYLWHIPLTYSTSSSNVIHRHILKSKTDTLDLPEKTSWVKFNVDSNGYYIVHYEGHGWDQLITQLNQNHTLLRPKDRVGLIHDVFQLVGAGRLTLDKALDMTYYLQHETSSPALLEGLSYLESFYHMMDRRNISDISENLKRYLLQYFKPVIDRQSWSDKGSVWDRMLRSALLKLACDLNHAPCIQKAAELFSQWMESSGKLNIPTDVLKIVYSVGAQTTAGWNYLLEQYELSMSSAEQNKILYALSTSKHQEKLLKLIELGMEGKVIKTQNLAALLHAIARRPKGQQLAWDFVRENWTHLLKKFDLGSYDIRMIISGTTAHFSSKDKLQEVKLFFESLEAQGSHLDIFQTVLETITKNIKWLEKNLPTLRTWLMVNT
Protocol: (§1) The enzymatic activity of ERAP1 or 2 was assayed using L-AMC (L-Leucine-7-amido-4-methylcoumarin hydrochloride) or R-AMC (L-Arginine-7-amido-4-methylcoumarin hydrochloride) respectively. Hepes at 50 mM with 100 mM NaCl at pH 7 was used as buffer. Briefly, 60 nL of test compounds were added in 384-wells plates (dark, non-binding surface) by acoustic dispensing with nanoacoustic dispenser Echo (Labcyte) and pre-incubated 30 minutes at ambient temperature with 10 μL of ERAP 0.8 μg/mL or 1 μg/mL or vehicle. The reaction was then started with the addition of 10 μL of substrate at 10 μM. The final concentration of ERAP, substrate and DMSO was 0.5 μg/mL, 5 μM and 0.4% respectively. For the kinetic readout a Victor 3V (Perkin-Elmer) was used with excitation at 380 nm and emission at 450 nm. The fluorescence was measured each 3 minutes during one hour.
(§2) The Z and Z′ factors were calculated according to J.-H. Zhang, T. D. Y. Chung, K. R. Oldenburg, A Simple Statistical Parameter for Use in Evaluation and Validation of High Throughput Screening Assays, J. Biomol. Screen., 4 (1999) 67-73. Data analysis was performed using Xlfit® v 5.0 or GraphPad Prism® v 4.0.
(§3) Percentages of inhibition at different concentrations were obtained as described above and IC50s were carried out as 8-point dose response curves and reported as the average of at least three independent measurements. […] Data analysis was performed using Xlfit® v 5.0 or GraphPad Prism® v 4.0. Nonlinear curve fitting and statistical analysis was done using built-in functions.

ERAP1 = ERAP1 (Homo sapiens (Human), UniProt Q9NZ08); experiment: In vitro ERAP activity assay, ERAP1 with L-AMC substrate; type: biochemical; settings: L-AMC as substrate; read-out: IC50 on ERAP1 or ERAAP using L-AMC as substrate
Sequence of ERAP1 (Q9NZ08 whole entry): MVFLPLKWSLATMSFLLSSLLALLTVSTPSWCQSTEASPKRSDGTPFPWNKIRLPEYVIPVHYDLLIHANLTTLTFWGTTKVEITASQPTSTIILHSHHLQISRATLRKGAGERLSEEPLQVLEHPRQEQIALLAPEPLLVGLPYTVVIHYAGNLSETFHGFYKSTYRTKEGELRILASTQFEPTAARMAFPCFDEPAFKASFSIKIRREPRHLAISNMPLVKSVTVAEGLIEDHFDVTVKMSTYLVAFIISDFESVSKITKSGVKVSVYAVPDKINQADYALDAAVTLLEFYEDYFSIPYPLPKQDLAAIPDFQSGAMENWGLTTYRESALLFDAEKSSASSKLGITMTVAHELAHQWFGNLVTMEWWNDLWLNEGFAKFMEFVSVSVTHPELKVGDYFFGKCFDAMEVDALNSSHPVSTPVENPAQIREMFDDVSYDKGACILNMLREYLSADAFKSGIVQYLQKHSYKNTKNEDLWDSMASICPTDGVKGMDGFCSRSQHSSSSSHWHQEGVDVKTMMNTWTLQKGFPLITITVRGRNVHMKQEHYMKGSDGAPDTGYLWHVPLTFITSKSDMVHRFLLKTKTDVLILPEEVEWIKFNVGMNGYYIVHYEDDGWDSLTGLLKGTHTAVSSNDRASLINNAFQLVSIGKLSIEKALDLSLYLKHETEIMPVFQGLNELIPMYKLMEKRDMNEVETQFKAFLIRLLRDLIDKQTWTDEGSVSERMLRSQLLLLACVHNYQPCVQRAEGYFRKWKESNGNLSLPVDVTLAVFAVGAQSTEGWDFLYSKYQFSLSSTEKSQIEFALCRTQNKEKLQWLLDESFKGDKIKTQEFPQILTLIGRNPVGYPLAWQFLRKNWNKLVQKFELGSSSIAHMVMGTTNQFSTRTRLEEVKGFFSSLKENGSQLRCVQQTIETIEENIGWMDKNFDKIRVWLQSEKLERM
Protocol: as §1, §2, §3

SMILES	inhibition at 2000 µM (ERAP2; at 2 mM, ERAP1 or 2 activity assay, read-out: inhibition (reference inhibitor)) [%]	IC50 (ERAP2) [µM]	IC50 (ERAP1) [µM]	IC50 on ERAP2 using R-AMC as substrate (ERAP2)
CC(C)C[C@H](NC(=O)[C@@H](O)[C@H](N)Cc1ccccc1)C(=O)O [Bestatin, reference compound]	100	–	–	–
O=C(C[C@@H](Cc1c[nH]c2ccccc12)n1cc(CNS(=O)(=O)c2ccc(-c3ccccc3)s2)nn1)NO [Compound 1]	–	> 5	–	–
O=C(NO)[C@@H](Cc1c[nH]c2ccccc12)n1cc(CNS(=O)(=O)c2ccc(-c3ccccc3)s2)nn1 [Compound 2]	–	> 5	> 5	–
CN(Cc1cn([C@@H](Cc2c[nH]c3ccccc23)C(=O)NO)nn1)S(=O)(=O)c1ccc(-c2ccccc2)s1 [Compound 3]	–	–	> 5	+ +
O=C(NO)[C@H](Cc1c[nH]c2ccccc12)n1cc(CNS(=O)(=O)c2ccc(-c3ccccc3)s2)nn1 [Compound 4]	–	> 5	> 5	–
O=C(NO)[C@H](Cc1c[nH]c2ccccc12)n1cc(CNS(=O)(=O)c2ccc(Br)s2)nn1 [Compound 5]	–	–	> 5	+ +
O=C(C[C@@H](Cc1ccc2ccccc2c1)n1cc(CNS(=O)(=O)c2ccc(-c3ccccc3)s2)nn1)NO [Compound 6]	–	–	> 5	+ +
O=C(C[C@H](Cc1ccc(O)cc1)n1cc(CNS(=O)(=O)c2ccc(-c3ccccc3)s2)nn1)NO [Compound 7]	–	–	–	+ +
O=C(NO)[C@@H](Cc1ccc(O)cc1)n1cc(CNS(=O)(=O)c2ccc(-c3ccccc3)s2)nn1 [Compound 8]	–	–	> 5	+ +
CN(Cc1cn([C@H](CC(=O)NO)Cc2ccc(O)cc2)nn1)S(=O)(=O)c1ccc(-c2ccccc2)s1 [Compound 9]	–	> 5	–	–
O=C(NO)[C@H](Cc1ccc(O)cc1)n1cc(CNS(=O)(=O)c2ccc(-c3ccccc3)s2)nn1 [Compound 10]	–	–	> 5	+ +
CNC(=O)c1ccc(-c2ccc(S(=O)(=O)NCc3cn([C@@H](Cc4ccc(O)cc4)C(=O)NO)nn3)s2)cc1 [Compound 11]	–	–	–	+ +
NCc1ccc(-c2ccc(S(=O)(=O)NCc3cn([C@@H](Cc4ccc(O)cc4)C(=O)NO)nn3)s2)cc1 [Compound 12]	–	–	> 5	+ +
CN(Cc1cn([C@@H](Cc2ccc(O)cc2)C(=O)NO)nn1)S(=O)(=O)c1ccc(-c2ccccc2)s1 [Compound 13]	–	–	> 5	+ +
O=C(NO)[C@H](Cc1ccc(O)cc1)n1cc(CNS(=O)(=O)c2ccc(Br)s2)nn1 [Compound 14]	–	–	> 5	+ +
O=C(NO)[C@H](Cc1ccc(O)cc1)n1cc(CNS(=O)(=O)c2cccs2)nn1 [Compound 15]	–	–	> 5	+ +
Cc1ccc(S(=O)(=O)NCc2cn([C@@H](Cc3ccc(O)cc3)C(=O)NO)nn2)s1 [Compound 16]	–	–	–	+ +
O=C(NO)[C@H](Cc1ccc(O)cc1)n1cc(CNS(=O)(=O)c2ccsc2)nn1 [Compound 17]	–	–	> 5	+ +
O=C(NO)[C@H](Cc1ccc(O)cc1)n1cc(CNS(=O)(=O)c2sccc2Br)nn1 [Compound 18]	–	–	–	+ +
O=C(NO)[C@H](Cc1ccc(O)cc1)n1cc(CNS(=O)(=O)c2ccc(-c3ccccn3)s2)nn1 [Compound 19]	–	–	> 5	+ +
O=C(NO)[C@@H](Cc1ccc(O)cc1)n1cc(CNS(=O)(=O)c2ccc(-c3ccccn3)s2)nn1 [Compound 20]	–	–	> 5	+ +
O=C(NO)[C@H](Cc1ccc(OC(F)(F)F)cc1)n1cc(CNS(=O)(=O)c2ccc(-c3ccccn3)s2)nn1 [Compound 21]	–	< 0.5	–	–
O=C(NO)[C@H](Cc1ccc(OC(F)(F)F)cc1)n1cc(CNS(=O)(=O)c2ccc(-c3ccccc3)s2)nn1 [Compound 22]	–	< 0.5	–	–

SMILES	inhibition at 2000 µM (ERAP2; at 2 mM, ERAP1 or 2 activity assay, read-out: inhibition (reference inhibitor)) [%]	IC50 (ERAP2) [µM]	IC50 (ERAP1) [µM]	IC50 on ERAP2 using R-AMC as substrate (ERAP2)
COc1ccc(C[C@@H](C(=O)NO)n2cc(CNS(=O)(=O)c3ccc(-c4ccccc4)s3)nn2)cc1 [Compound 24]	–	–	> 5	–
CC(C)(C)Oc1ccc(C[C@@H](C(=O)NO)n2cc(CNS(=O)(=O)c3ccc(-c4ccccc4)s3)nn2)cc1 [Compound 26]	–	< 0.5	–	–
CC(C)(C)Oc1ccc(C[C@@H](C(=O)NO)n2cc(CNS(=O)(=O)c3ccc(-c4ccccn4)s3)nn2)cc1 [Compound 27]	–	< 0.5	–	–
CNC(=O)c1ccc(-c2ccc(S(=O)(=O)NCc3cn([C@@H](Cc4ccc(OC)cc4)C(=O)NO)nn3)s2)cc1 [Compound 28]	–	< 0.5	< 5	–
O=C(NO)[C@H](Cc1ccc(O)cc1)n1cc(CNS(=O)(=O)c2ccc(-c3cccnc3)s2)nn1 [Compound 29]	–	< 0.5	–	–
O=C(C[C@@H](Cc1c[nH]c2ccccc12)n1nncc1CNS(=O)(=O)c1ccc(-c2ccccc2)s1)NO [Compound 30]	–	> 5	–	–
O=C(C[C@H](Cc1ccc(O)cc1)n1nncc1CNS(=O)(=O)c1ccc(-c2ccccc2)s1)NO [Compound 31]	–	–	–	+ +
CN(Cc1cnnn1[C@H](CC(=O)NO)Cc1ccc(O)cc1)S(=O)(=O)c1ccc(-c2ccccc2)s1 [Compound 32]	–	–	–	+ +
O=C(C[C@H](Cc1ccc(O)cc1)n1nncc1CNS(=O)(=O)c1ccc(-c2ccccn2)s1)NO [Compound 33]	–	–	> 5	–
O=C(NO)[C@H](Cc1ccc(O)cc1)n1nncc1CNS(=O)(=O)c1ccc(-c2ccccc2)s1 [Compound 34]	–	–	–	+ +
O=C(NO)[C@@H](Cc1ccc(O)cc1)n1nncc1CNS(=O)(=O)c1ccc(-c2ccccc2)s1 [Compound 35]	–	> 5	–	–
COc1ccc(C[C@@H](C(=O)NO)n2cc(CNS(=O)(=O)c3ccc(-c4ccncc4)s3)nn2)cc1 [Compound 36]	–	< 0.5	> 5	–
O=C(NO)[C@H](Cc1ccc2c(c1)OCO2)n1cc(CNS(=O)(=O)c2ccc(-c3ccccn3)s2)nn1 [Compound 37]	–	< 0.5	> 5	–
COc1ccc(C[C@@H](C(=O)NO)n2cc(CNS(=O)(=O)c3ccc(-c4cccnc4)s3)nn2)cc1 [Compound 38]	–	< 0.5	–	–
O=C(NO)[C@H](Cc1ccc(O)c(Cl)c1)n1cc(CNS(=O)(=O)c2ccc(-c3ccccn3)s2)nn1 [Compound 39]	–	< 0.5	< 5	–
O=C(NO)[C@H](Cc1ccc(O)c(Cl)c1)n1cc(CNS(=O)(=O)c2ccc(-c3ccccc3)s2)nn1 [Compound 40]	–	< 0.5	> 5	–
COc1ccc(C[C@@H](C(=O)NO)n2cc(CNS(=O)(=O)c3ccc(-c4ccccn4)s3)nn2)cc1OC [Compound 41]	–	< 0.5	< 5	–
COc1ccc(C[C@@H](C(=O)NO)n2cc(CN(C)S(=O)(=O)c3ccc(-c4ccccn4)s3)nn2)cc1 [Compound 46]	–	< 0.5	–	–
COc1ccc(C[C@@H](C(=O)NO)n2cc([C@H](C)NS(=O)(=O)c3ccc(-c4ccccn4)s3)nn2)cc1 [Compound 47]	–	< 0.5	–	–
COc1ccc(C[C@@H](C(=O)NO)n2cc([C@@H](C)NS(=O)(=O)c3ccc(-c4ccccn4)s3)nn2)cc1 [Compound 48]	–	< 5	–	–
COc1ccccc1C[C@@H](C(=O)NO)n1cc(CNS(=O)(=O)c2ccc(-c3ccccn3)s2)nn1 [Compound 50]	–	> 5	–	–
COCCOc1ccc(C[C@@H](C(=O)NO)n2cc(CNS(=O)(=O)c3ccc(-c4ccccn4)s3)nn2)cc1 [Compound 51]	–	< 0.5	–	–
